Assay results reported in patent US20060258729A1, “Antibacterial pyrazole carboxylic acid hydrazides” (priority 2002, published 2006).
Values after ≈ are worked out from the molar mass of the structure shown. “Also recorded” adds a separate entry of the source.

Assays:
[1] = test system: Enterococcus faecalis strain 29212; assay: Inhibition of bacterial growth (MIC), Efcl; type: cell-based; conditions: 16 to 18 hours, 37° C.; for MIC: read-out: Minimum Inhibitory Concentration for Bacterial Growth, Efcl
Protocol: (§1) Each compound was assayed against a panel of a strain of Bacillus subtilis, of strains of antibiotic-resistant and sensitive Enterococcus and Staphylococcus species, and of a strain of the Gram-negative bacterium Escherichia coli. Compounds were dissolved in DMSO at 100× the desired highest concentration and added to one well of a 96-well microassay plate. Two-fold serial drug dilutions were made across the plate in DMSO to yield 11 concentrations (usually 80-0.078 μg/mL) plus an untreated control. Drugs were then transferred to fresh plates using 1.5 μL per well. Log phase cultures were diluted to yield a concentration of 1×10^5 colony forming units/mL in either LB or BHI medium and transferred to the plates containing drug for a final volume of 150 μL. Each well, including the DMSO controls, contained a final concentration of 1% DMSO. Plates were incubated with shaking at 37° C. for 16 to 18 hours. Cell growth was determined by measuring optical density (570 nm, 1 cm path length) in a microplate reader. MIC (minimum inhibitory concentration) is equivalent to the lowest concentration at which growth is not observed. The bacterial strains and MIC determinations have been well characterized and are described elsewhere (Tarantino et al., Antimicrob. Agents Chemother., 43: 1982-1987 (1999); Daly et al., Antimicrob. Agents Chemother., 44: 2217-2221 (2000)).

B. subtilis pol IIIC [2] = target: T1, B. subtilis pol IIIC (Bacillus subtilis, UniProt P13267); assay: DNA polymerase assay, B. subtilis pol IIIC; type: biochemical; conditions: for inhibition at 80 µg/mL: read-out: Percent Enzymatic Inhibition B. subtilis pol IIIC
T1 construct: made in house
Protocol: Recombinant, purified pol IIIC and pol IIIE from Bacillus subtilis were obtained using known methods (Hammond et al., Gene 98: 29-36 (1991), regarding pol IIIC; Barnes et al., J. Bacteriol. 184, 3834-3838 (2002), regarding pol IIIE). Recombinant, purified pol IIIE from Escherichia coli was obtained from a commercial source (Enzyco, Denver, Colo.). The enzyme assays were performed in 96-well plate format using the same assay mix for all three enzymes. […] Dilutions of compounds were added to the plate in 1% DMSO (1 μL/well). Assays were initiated by the addition of 0.025 to 0.06 units of enzyme (1 unit is the amount required to incorporate 250 pmoles of [^3H] dTMP in a standard assay), incubated for 10 min at 30° C. and terminated by the addition of 200 μL of cold 10% trichloroacetic acid, 10 mM sodium pyrophosphate. Precipitated labeled DNA was collected on glass fiber filter plates that had been pre-wet with ice cold 1 M HCl, 100 mM sodium pyrophosphate. The plates were washed with the HCl solution followed by ice cold 90% ethanol and then dried and counted in a liquid scintillation counter. […] In addition, percent inhibition values are calculated as the percent reduction in the activity of a DMSO (diluent) control.

[3] = test system: Bacillus subtilis strain BD54; assay: Inhibition of bacterial growth (MIC), Bs; type: cell-based; conditions: 16 to 18 hours, 37° C.; for MIC: read-out: Minimum Inhibitory Concentration for Bacterial Growth, Bs
Protocol: as §1

[4] = test system: E. faecium clinical isolate; assay: Inhibition of bacterial growth (MIC), Efcm; type: cell-based; conditions: 16 to 18 hours, 37° C.; for MIC: Enterococcus faecium, read-out: Minimum Inhibitory Concentration for Bacterial Growth, Efcm
Protocol: as §1

[5] = test system: vancomycin-resistant Enterococcus strain B42762; assay: Inhibition of bacterial growth (MIC), VRE; type: cell-based; conditions: 16 to 18 hours, 37° C.; for MIC: VRE, read-out: Minimum Inhibitory Concentration for Bacterial Growth, VRE
Protocol: as §1

[6] = test system: Staphylococcus aureus strain IP 8; assay: Inhibition of bacterial growth (MIC), Sa; type: cell-based; conditions: 37° C.; for MIC: IP8, 16 to 18 hours, read-out: Minimum Inhibitory Concentration for Bacterial Growth, Sa
Protocol: as §1

test strains of bacteria = assay: Inhibition of bacterial growth, whole panel of test strains; type: cell-based
Protocol: as §1

B. subtilis pol IIIE [7] = target: T2, B. subtilis pol IIIE (Bacillus subtilis, UniProt O34623); assay: DNA polymerase assay, B. subtilis pol IIIE; type: biochemical
T2 construct: made in house

S. aureus Smith strain = assay: Inhibition of bacterial growth (MIC), Sm; type: cell-based, Staphylococcus aureus; conditions: 16 to 18 hours, 37° C.; for MIC: Staphylococcus aureus, read-out: Minimum Inhibitory Concentration for Bacterial Growth, Sm
Protocol: as §1

B. subtilis pol IIIE [8] = target: T2, B. subtilis pol IIIE; assay: DNA polymerase assay, B. subtilis pol IIIE; type: biochemical; conditions: for IC50: B. subtilis Pol IIIE IC50, 4 dNTPs, in the presence of all four dNTP substrates
Protocol: (§2) Recombinant, purified pol IIIC and pol IIIE from Bacillus subtilis were obtained using known methods (Hammond et al., Gene 98: 29-36 (1991), regarding pol IIIC; Barnes et al., J. Bacteriol. 184, 3834-3838 (2002), regarding pol IIIE). Recombinant, purified pol IIIE from Escherichia coli was obtained from a commercial source (Enzyco, Denver, Colo.). The enzyme assays were performed in 96-well plate format using the same assay mix for all three enzymes. Each 25 μL assay contained 30 mM Tris, pH 7.5, 10 mM magnesium acetate, 4 mM dithiothreitol, 20% glycerol, with 10 μM dATP, dCTP, dGTP and dTTP (3H-labelled at 1.44 Ci/mmole) and 0.4 mg/mL activated calf thymus DNA as substrates. Dilutions of compounds were added to the plate in 1% DMSO (1 μL/well). Assays were initiated by the addition of 0.025 to 0.06 units of enzyme (1 unit is the amount required to incorporate 250 pmoles of [^3H] dTMP in a standard assay), incubated for 10 min at 30° C. and terminated by the addition of 200 μL of cold 10% trichloroacetic acid, 10 mM sodium pyrophosphate. Precipitated labeled DNA was collected on glass fiber filter plates that had been pre-wet with ice cold 1 M HCl, 100 mM sodium pyrophosphate. The plates were washed with the HCl solution followed by ice cold 90% ethanol and then dried and counted in a liquid scintillation counter. The calculated IC50 is the concentration needed to inhibit 50% of the DNA polymerase activity in the presence of all four dNTP substrates. In addition, percent inhibition values are calculated as the percent reduction in the activity of a DMSO (diluent) control.

[9] = test system: methicillin-resistant S. aureus strain 1094; assay: Inhibition of bacterial growth (MIC), MRSA; type: cell-based, Staphylococcus aureus; conditions: 16 to 18 hours, 37° C.; for MIC: Staphylococcus aureus, MRSA, read-out: Minimum Inhibitory Concentration for Bacterial Growth, MRSA
Protocol: as §1

E. coli pol IIIE = target: T3, E. coli pol IIIE (Escherichia coli, UniProt P10443); assay: DNA polymerase assay, E. coli pol IIIE; type: biochemical; conditions: 80 μg/mL (190-260 μM) final concentration, all four dNTPs
T3 construct: purchased Enzyco, Denver, Colo
Protocol: as §2

[10] = test system: Escherichia coli strain J53; assay: Inhibition of bacterial growth (MIC), Ec; type: cell-based; conditions: 16 to 18 hours, 37° C.; for MIC: read-out: Minimum Inhibitory Concentration for Bacterial Growth, Ec
Protocol: as §1

B. subtilis pol IIIC [11] = target: T1, B. subtilis pol IIIC; assay: Classical enzyme kinetic analyses (Lineweaver-Burk) with pol IIIC; type: biochemical; conditions: variable substrate dGTP; Compound 17 at 0, 20, 60 μM; HB-EMAU at 0, 1.6, 4.8 μM
Protocol: The variable substrate in the experiments for FIGS. 1A and 1B was dGTP. See text for details.
Classical enzyme kinetic analyses were performed with Compound 17 and pol IIIC in which reaction velocity was measured as a function of each substrate (dGTP) concentration at several inhibitor concentrations (0, 20, and 60 μM). The results are graphed in a double reciprocal plot by the method of Lineweaver and Burk in FIG. 1A and show the effect of varying dGTP.
Compounds of the anilinouracil (AU) family, classical DNA polymerase inhibitors, inhibit pol IIIC strictly by “competitive” inhibition. An example is shown in the double reciprocal plot in FIG. 1B for the compound N3-hydroxybutyl 6-(3′-ethyl-4′-methylanilino) uracil (HB-EMAU), tested at 0, 1.6, and 4.8 μM. Such AU compounds compete with the dGTP substrate for binding to the enzyme (Clements et al., J. Biol. Chem. 250, 522-526 (1975)). “Noncompetive” inhibitors are exemplified by the class of HIV reverse transcriptase inhibitors, 4,5,6,7-tetrahydro-5-methylimidazo[4,5,1-jk][1,4]benzodiazepin-2(1H)-one (TIBO), i.e., TIBO compounds bind a site adjacent to the active site (Spence et al., Science 267, 988-993 (1995)). In contrast, the data in FIG. 1A clearly indicate that Compound 17, a pyrazole carboxylic acid hydrazide, inhibits pol IIIC by an “uncompetitive” mechanism.

[12] = 80 μg/mL (190-260 μM) final concentration, all four dNTPs
[13] = B. subtilis Pol IIIC IC50, 4 dNTPs, in the presence of all four dNTP substrates
[14] = B. subtilis Pol IIIC IC50, −dATP, in the absence of dATP
[15] = B. subtilis Pol IIIC IC50, −dCTP, in the absence of dCTP
[16] = B. subtilis Pol IIIC IC50, −dGTP, in the absence of dGTP
[17] = B. subtilis Pol IIIE IC50, −dATP, in the absence of dATP
[18] = B. subtilis Pol IIIE IC50, −dCTP, in the absence of dCTP
[19] = B. subtilis Pol IIIE IC50, −dGTP, in the absence of dGTP

T3 sequence (P10443 whole entry): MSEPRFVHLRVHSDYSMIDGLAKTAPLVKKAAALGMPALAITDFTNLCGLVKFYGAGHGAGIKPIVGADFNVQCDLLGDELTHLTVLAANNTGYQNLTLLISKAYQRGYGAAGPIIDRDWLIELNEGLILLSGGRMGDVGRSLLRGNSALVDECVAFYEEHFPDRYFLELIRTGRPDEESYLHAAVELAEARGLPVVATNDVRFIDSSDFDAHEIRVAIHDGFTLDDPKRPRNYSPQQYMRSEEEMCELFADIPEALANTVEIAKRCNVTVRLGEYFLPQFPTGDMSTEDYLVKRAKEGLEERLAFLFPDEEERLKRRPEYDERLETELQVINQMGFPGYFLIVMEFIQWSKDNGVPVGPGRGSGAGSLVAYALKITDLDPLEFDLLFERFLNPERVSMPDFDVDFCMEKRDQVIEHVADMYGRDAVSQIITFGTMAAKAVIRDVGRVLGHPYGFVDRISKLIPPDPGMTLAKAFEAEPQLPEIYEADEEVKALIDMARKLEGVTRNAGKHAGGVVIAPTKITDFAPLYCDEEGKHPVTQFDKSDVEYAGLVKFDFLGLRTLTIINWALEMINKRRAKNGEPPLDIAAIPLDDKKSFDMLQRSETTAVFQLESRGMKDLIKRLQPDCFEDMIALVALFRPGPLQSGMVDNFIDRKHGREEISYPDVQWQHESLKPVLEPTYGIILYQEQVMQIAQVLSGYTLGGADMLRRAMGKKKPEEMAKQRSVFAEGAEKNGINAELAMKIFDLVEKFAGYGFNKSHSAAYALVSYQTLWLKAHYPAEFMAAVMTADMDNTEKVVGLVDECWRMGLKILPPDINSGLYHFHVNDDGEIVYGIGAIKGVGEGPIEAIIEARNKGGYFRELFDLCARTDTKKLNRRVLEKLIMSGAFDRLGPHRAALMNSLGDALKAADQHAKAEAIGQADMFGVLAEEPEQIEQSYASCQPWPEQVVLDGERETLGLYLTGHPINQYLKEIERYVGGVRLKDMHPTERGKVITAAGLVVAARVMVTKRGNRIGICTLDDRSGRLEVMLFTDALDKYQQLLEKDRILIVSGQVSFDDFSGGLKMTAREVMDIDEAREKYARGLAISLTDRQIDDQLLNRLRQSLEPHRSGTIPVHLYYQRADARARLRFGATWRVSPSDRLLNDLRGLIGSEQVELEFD
T1 sequence (P13267 whole entry): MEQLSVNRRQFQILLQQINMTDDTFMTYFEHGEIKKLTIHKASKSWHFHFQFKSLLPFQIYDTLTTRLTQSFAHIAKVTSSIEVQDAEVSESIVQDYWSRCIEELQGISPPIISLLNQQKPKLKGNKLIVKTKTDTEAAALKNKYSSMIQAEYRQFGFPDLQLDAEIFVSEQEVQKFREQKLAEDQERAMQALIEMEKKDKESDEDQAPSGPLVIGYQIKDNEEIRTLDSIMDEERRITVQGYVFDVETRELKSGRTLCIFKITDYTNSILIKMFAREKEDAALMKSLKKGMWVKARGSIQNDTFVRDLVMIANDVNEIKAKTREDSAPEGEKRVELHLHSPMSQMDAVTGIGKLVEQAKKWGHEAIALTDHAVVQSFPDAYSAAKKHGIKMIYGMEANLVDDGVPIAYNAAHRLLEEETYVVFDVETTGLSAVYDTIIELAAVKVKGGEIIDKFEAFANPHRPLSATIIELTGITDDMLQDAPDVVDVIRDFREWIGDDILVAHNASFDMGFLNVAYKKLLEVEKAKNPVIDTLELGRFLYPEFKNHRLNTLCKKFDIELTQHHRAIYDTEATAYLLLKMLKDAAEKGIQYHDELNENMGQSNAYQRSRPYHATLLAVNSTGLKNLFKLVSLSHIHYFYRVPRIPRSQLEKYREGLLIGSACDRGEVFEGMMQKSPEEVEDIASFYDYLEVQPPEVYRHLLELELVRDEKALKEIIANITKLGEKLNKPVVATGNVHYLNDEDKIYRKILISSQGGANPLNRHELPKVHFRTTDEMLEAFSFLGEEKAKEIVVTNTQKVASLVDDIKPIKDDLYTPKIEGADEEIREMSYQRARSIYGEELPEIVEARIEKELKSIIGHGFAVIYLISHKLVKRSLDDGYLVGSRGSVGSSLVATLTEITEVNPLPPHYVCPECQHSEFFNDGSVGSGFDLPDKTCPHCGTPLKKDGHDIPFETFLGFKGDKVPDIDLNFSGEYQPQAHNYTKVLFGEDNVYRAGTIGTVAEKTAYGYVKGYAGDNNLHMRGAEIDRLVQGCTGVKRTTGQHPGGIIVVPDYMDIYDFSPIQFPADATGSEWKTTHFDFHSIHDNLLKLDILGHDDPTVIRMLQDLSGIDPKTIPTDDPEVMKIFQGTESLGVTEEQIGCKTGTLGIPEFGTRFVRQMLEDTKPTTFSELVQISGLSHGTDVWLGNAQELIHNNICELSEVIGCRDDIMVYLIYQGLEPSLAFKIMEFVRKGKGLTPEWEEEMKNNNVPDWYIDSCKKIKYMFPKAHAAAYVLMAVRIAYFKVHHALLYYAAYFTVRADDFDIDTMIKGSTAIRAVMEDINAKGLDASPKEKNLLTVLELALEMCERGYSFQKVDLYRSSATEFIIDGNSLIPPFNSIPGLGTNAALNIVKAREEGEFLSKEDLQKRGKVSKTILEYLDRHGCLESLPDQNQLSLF
T2 sequence (O34623 whole entry): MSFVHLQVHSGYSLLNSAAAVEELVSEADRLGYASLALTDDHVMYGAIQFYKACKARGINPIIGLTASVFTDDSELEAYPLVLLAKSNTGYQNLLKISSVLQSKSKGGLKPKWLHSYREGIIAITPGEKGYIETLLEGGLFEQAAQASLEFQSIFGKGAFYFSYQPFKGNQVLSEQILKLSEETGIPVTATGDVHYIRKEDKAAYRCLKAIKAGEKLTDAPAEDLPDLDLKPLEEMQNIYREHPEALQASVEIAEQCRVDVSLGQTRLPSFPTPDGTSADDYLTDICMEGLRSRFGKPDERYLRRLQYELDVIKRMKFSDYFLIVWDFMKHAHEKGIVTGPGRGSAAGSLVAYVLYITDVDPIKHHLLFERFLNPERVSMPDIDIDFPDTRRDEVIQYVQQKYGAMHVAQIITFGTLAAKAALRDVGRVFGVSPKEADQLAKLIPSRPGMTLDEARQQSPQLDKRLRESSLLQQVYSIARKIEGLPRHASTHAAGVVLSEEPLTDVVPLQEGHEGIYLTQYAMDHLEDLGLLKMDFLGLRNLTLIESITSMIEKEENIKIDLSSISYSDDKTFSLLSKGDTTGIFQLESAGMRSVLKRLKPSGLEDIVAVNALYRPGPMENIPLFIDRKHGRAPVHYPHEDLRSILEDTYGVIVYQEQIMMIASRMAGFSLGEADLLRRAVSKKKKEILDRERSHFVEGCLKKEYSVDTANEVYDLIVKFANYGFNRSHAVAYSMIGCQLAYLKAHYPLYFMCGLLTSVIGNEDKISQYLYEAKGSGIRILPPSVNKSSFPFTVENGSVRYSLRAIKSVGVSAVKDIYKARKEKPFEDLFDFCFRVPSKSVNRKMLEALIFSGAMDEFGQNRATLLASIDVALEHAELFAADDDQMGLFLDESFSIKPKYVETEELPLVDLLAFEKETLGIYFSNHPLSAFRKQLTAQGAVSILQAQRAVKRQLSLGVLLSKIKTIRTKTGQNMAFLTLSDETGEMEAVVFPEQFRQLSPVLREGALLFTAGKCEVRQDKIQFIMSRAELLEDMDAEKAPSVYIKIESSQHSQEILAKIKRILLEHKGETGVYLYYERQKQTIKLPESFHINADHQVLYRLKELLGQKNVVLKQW

Structure (SMILES)	MIC [1] [µg/mL]	inhibition at 80 µg/mL (B. subtilis pol IIIC [2]; [12]) [%]	IC50 (B. subtilis pol IIIC [2]; [13]) [µM]	IC50 (B. subtilis pol IIIC [2]; [14]) [µM]	IC50 (B. subtilis pol IIIC [2]; [15]) [µM]	IC50 (B. subtilis pol IIIC [2]; [16]) [µM]	MIC [3] [µg/mL]	MIC [4] [µg/mL]	MIC [5] [µg/mL]	MIC [6] [µg/mL]	Inhibition of bacterial growth, result in words (rank of MIC values) (test strains of bacteria)	IC50 (B. subtilis pol IIIE [7]; [17]) [µM]	IC50 (B. subtilis pol IIIE [7]; [18]) [µM]	IC50 (B. subtilis pol IIIE [7]; [19]) [µM]	MIC (S. aureus Smith strain) [µg/mL]	IC50 (B. subtilis pol IIIE [8]) [µM]	MIC [9] [µg/mL]	MIC [10] [µg/mL]	further results
COc1cc(C=NNC(=O)c2cc(-c3ccccc3)n[nH]2)cc(OC)c1OC [Compound 1]	10 (≈ 26.3 µM)	14.3	188	10	44	14	3 (≈ 7.89 µM)	20 (≈ 52.6 µM)	20 (≈ 52.6 µM)	3 (≈ 7.89 µM)	second	75	62	51	5 (≈ 13.1 µM)	166	10 (≈ 26.3 µM)	> 80	inhibition at 80 µg/mL (E. coli pol IIIE; read-out: Percent Enzymatic Inhibition E. coli pol IIIE): 0.4%
CCOc1cccc(-c2cc(C(=O)NN=Cc3cccc(OC)c3O)[nH]n2)c1 [Compound 7]	–	–	–	–	–	–	–	–	–	–	able to inhibit growth	–	–	–	–	–	–	–	Minimum Inhibitory Concentration for Bacterial Growth, Efcl [1]: >80 µg/mL; Percent Enzymatic Inhibition B. subtilis pol IIIC (B. subtilis pol IIIC [2]; [12]): not sufficient to show a significant inhibition; also recorded: Inactive; Minimum Inhibitory Concentration for Bacterial Growth, Bs [3]: 80 µg/mL; Minimum Inhibitory Concentration for Bacterial Growth, Efcm [4]: >80 µg/mL; Minimum Inhibitory Concentration for Bacterial Growth, VRE [5]: >80 µg/mL; Minimum Inhibitory Concentration for Bacterial Growth, Sa ([6]; 16 to 18 hours): 30 µg/mL; Minimum Inhibitory Concentration for Bacterial Growth, Sm (S. aureus Smith strain): 40 µg/mL; Percent Enzymatic Inhibition B. subtilis pol IIIE (B. subtilis pol IIIE [8]; [12]): not sufficient to show a significant inhibition; also recorded: Inactive; Minimum Inhibitory Concentration for Bacterial Growth, MRSA [9]: 30 µg/mL; Percent Enzymatic Inhibition E. coli pol IIIE (E. coli pol IIIE): not sufficient to show a significant inhibition; also recorded: Inactive; Minimum Inhibitory Concentration for Bacterial Growth, Ec [10]: >80 µg/mL
COc1ccc(-c2cc(C(=O)NN=Cc3ccc(OC)c(OC)c3)[nH]n2)cc1 [Compound 18]	40 (≈ 105 µM)	> 20	912	23	6.5	5.5	2.5 (≈ 6.57 µM)	20 (≈ 52.6 µM)	20 (≈ 52.6 µM)	5 (≈ 13.1 µM)	third place	345	> 1000	> 1000	5 (≈ 13.1 µM)	278	10 (≈ 26.3 µM)	> 80	inhibition at 80 µg/mL (B. subtilis pol IIIE [8]; 80 μg/mL (190-260 μM) final concentration, all four dNTPs, read-out: Percent Enzymatic Inhibition B. subtilis pol IIIE): > 20%
CCc1cc(Nc2cc(=O)n(CCCCO)c(=O)[nH]2)ccc1C [HB-EMAU, N3-hydroxybutyl 6-(3′-ethyl-4′-methylanilino) uracil, reference compound]	–	–	–	–	–	–	–	–	–	–	–	–	–	–	–	–	–	–	Mechanism of inhibition of pol IIIC (double reciprocal plot) (B. subtilis pol IIIC [11]): competitive inhibition mechanism
